The subject of assay [1] is Aβ40 in conditioned medium of cells stably expressing Amyloid Precursor Protein (APP). The assay is described as follows: In vitro BACE cell-based assay (HEK cell assay), Aβ40 sandwich ELISA. As to conditions: inhibition of Aβ40, 24 h incubation, read-out: HEK cell assay (IC50 class). In a few lines:
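APP-stably expressing cells (40K/well) grown 24 h, then treated 24 h with 10-point doses from 100 μM or 10 μM top (0.1% DMSO). Secreted Aβ40 quantified by sandwich ELISA (pAb40 capture, biotinylated 6E10 detection, europium time-resolved fluorescence); IC50 from percent inhibition versus concentration.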

In assay [2] the target is BACE1 (Homo sapiens, UniProt P56817). The assay is described as follows: In vitro enzymatic BACE FRET assay. Type of assay: biochemical. Conditions: beta secretase enzyme 0.2 nM, FRET substrate 50 nM, pH 4.2. The method, boiled down: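 Beta-secretase (0.2 nM) was pre-incubated 1 h with serially diluted inhibitor in 0.05 M acetate pH 4.2, 10% DMSO, 100 uM genapol. Then 50 nM quenched peptide FRET substrate was added for 1 h. The reaction was stopped with Tris to neutral pH and fluorescence read ([…]).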
BACE1, sequence (P56817 46-501, species assumed): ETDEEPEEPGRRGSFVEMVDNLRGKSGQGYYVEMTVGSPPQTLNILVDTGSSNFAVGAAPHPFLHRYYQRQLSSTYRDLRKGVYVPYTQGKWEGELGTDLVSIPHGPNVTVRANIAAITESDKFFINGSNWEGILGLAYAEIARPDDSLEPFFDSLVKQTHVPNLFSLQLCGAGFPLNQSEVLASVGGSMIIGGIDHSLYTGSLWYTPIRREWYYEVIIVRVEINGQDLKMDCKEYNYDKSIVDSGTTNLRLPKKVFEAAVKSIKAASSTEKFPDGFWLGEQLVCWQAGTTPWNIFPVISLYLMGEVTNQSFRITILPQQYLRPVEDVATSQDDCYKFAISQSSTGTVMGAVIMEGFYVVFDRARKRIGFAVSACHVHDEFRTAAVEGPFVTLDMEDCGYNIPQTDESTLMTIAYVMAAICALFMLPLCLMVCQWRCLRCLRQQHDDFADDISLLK

The mark [3] stands for this setting: read-out: BACE1 FRET assay (IC50 class).
Where [4] appears, read: read-out: BACE1 FRET assay (IC50, numeric).

Where two headings read alike, the source gives them in different places.

Experimental findings from patent US8735384B2, “Amino heteroaryl compounds as beta-secretase modulators and methods of use” (Amgen Inc., priority 2010, dated 2014) are described below.

Turning to `Cc1cccc(C#CC(C)(C)C)c1-c1ccc2nc(N)c(N3CCOCC3)cc2c1` [Example 40, 6-(2-(3,3-dimethylbut-1-ynyl)-6-methylphenyl)-3-morpholinoquinolin-2-amine], the IC50 is 1010 to 5000 nM in assay [1] (Homo sapiens, HEK293, 24 h) and less than 100 nM in assay [2] (setting [3]).
For `Cc1cccc(C(=O)N2CCC(C)CC2)c1-c1ccc2nc(N)c(N3CCOCC3)cc2c1` [Example 80, (2-(2-amino-3-morpholinoquinolin-6-yl)-3-methylphenyl)(4-methylpiperidin-1-yl)methanone], in that order: 1010 to 5000 nM and less than 100 nM.
For `Cc1cccc(-c2ncc3ccccn23)c1-c1ccc2nc(N)c(N3CCOCC3)cc2c1` [Example 30, 6-(2-(imidazo[1,5-a]pyridin-3-yl)-6-methylphenyl)-3-morpholinoquinolin-2-amine], in that order: 1010 to 5000 nM and 100 to 500 nM.
For `Cc1cccc(C(=O)N(C)CC(C)(C)C)c1-c1ccc2nc(N)c(N3CCOCC3)cc2c1` [Example 41, 2-(2-amino-3-morpholinoquinolin-6-yl)-N,3-dimethyl-N-neopentylbenzamide], in that order: 501 to 1000 nM and less than 100 nM.
Take `CCOC1CCN(C(=O)c2cccc(C)c2-c2ccc3nc(N)c(N4CCOCC4)cc3c2)CC1` [Example 76, (2-(2-amino-3-morpholinoquinolin-6-yl)-3-methylphenyl)(4-ethoxypiperidin-1-yl)methanone]: the IC50 is 1010 to 5000 nM in assay [1] (Homo sapiens, HEK293, 24 h) and less than 100 nM in assay [2] (setting [3]).
Turning to `Cc1cccc(C(=NO)c2ccccc2)c1-c1ccc2nc(N)c(N3CCOCC3)cc2c1` (stereo in doubt) [Example 16, (Z)-(2-(2-amino-3-morpholinoquinolin-6-yl)-3-methylphenyl)(phenyl)methanone oxime], the IC50 in assay [1] was 501 to 1000 nM; in assay [2] (setting [3]), less than 100 nM.
With `CCN(C(=O)c1cccc(C)c1-c1ccc2nc(N)c(N3CCOCC3)cc2c1)C1CC1` [Example 107, 2-(2-amino-3-morpholinoquinolin-6-yl)-N-cyclopropyl-N-ethyl-3-methylbenzamide], the half-inhibitory concentration (IC50) in assay [1] (Homo sapiens, HEK293, 24 h) was 1010 to 5000 nM; in assay [2] (setting [3]) it was 100 to 500 nM.
For `Cc1cc(F)cc(C(=O)N2CC[C@@H](F)C2)c1-c1ccc2nc(N)c(N3CCOCC3)cc2c1` [Example 130, (R)-(2-(2-amino-3-morpholinoquinolin-6-yl)-5-fluoro-3-methylphenyl)(3-fluoropyrrolidin-1-yl)methanone], in that order: 100 to 500 nM and less than 100 nM.
The matching figures for `C=CCN(CC=C)C(=O)c1cccc(C)c1-c1ccc2nc(N)c(N3CCOCC3)cc2c1` [Example 116, N,N-diallyl-2-(2-amino-3-morpholinoquinolin-6-yl)-3-methylbenzamide]: 1010 to 5000 nM and 100 to 500 nM.
The matching figures for `Nc1nc2ccc(-c3c(Cl)cccc3C(=O)N3CCCC3)cc2cc1N1CCOCC1` [Example 42, (2-(2-amino-3-morpholinoquinolin-6-yl)-3-chlorophenyl)(pyrrolidin-1-yl)methanone]: 501 to 1000 nM and less than 100 nM.
Consider `Cc1cccc(C(=O)c2ncccc2Cl)c1-c1ccc2nc(N)c(N3CCOCC3)cc2c1` [Example 159, (2-(2-amino-3-morpholinoquinolin-6-yl)-3-methylphenyl)(3-chloropyridin-2-yl)methanone], for which the IC50 in assay [1] (Homo sapiens, HEK293, 24 h) is 501 to 1000 nM; in assay [2] (setting [3]), less than 100 nM.
For `Cc1cccc(Oc2ccccc2)c1-c1ccc2nc(N)c(N3CCOCC3)cc2c1` [Example 171, 6-(2-methyl-6-phenoxyphenyl)-3-morpholinoquinolin-2-amine], in that order: more than 5000 nM and less than 100 nM.
For `Cc1cnc(-c2cccc(C)c2-c2ccc3nc(N)c(N4CCOCC4)cc3c2)o1` [Example 32, 6-(2-methyl-6-(5-methyloxazol-2-yl)phenyl)-3-morpholinoquinolin-2-amine], in that order: more than 5000 nM and 1010 to 5000 nM.
For `Cc1cccc(C(=O)N(C)C2CCCCC2)c1-c1ccc2nc(N)c(N3CCOCC3)cc2c1` [Example 112, 2-(2-amino-3-morpholinoquinolin-6-yl)-N-cyclohexyl-N,3-dimethylbenzamide], in that order: 1010 to 5000 nM and less than 100 nM.
As to `CSC1=NCCN1C(=O)c1cccc(C)c1-c1ccc2nc(N)c(N3CCOCC3)cc2c1` [Example 114, (2-(2-amino-3-morpholinoquinolin-6-yl)-3-methylphenyl)(2-(methylthio)-4,5-dihydro-1H-imidazol-1-yl)methanone], the IC50 in assay [1] (Homo sapiens, HEK293, 24 h) is more than 5000 nM; in assay [2] (setting [4]), 1140 nM.
`Cc1cccc(C(=O)c2ccncn2)c1-c1ccc2nc(N)c(N3CCOCC3)cc2c1` [Example 23, (2-(2-amino-3-morpholinoquinolin-6-yl)-3-methylphenyl)(pyrimidin-4-yl)methanone]: the half-maximal inhibitory concentration (IC50) was more than 5000 nM in assay [1] (Homo sapiens, HEK293, 24 h) and 100 to 500 nM in assay [2] (setting [3]).
The matching figures for `Nc1nc2ccc(-c3ccc(Cl)cc3C(=O)N3CCCC3)cc2cc1N1CCOCC1` [Example 147, (2-(2-amino-3-morpholinoquinolin-6-yl)-5-chlorophenyl)(pyrrolidin-1-yl)methanone]: 1010 to 5000 nM and 100 to 500 nM.
Take `Cc1cccc(C(=O)N2CCCC2)c1-c1ccc2nc(N)c(N3CCOC(CC(C)C)C3)cc2c1` (centres unmarked) [Example 213, (2-(2-amino-3-(2-isobutylmorpholino)quinolin-6-yl)-3-methylphenyl)(pyrrolidin-1-yl)methanone]: the IC50 in assay [1] (Homo sapiens, HEK293, 24 h) is 1010 to 5000 nM; in assay [2] (setting [3]), less than 100 nM.
As to `CC(C)(C)CCc1cccc(C(=O)N2CC[C@@H](F)C2)c1-c1ccc2nc(N)c(N3CCOCC3)cc2c1` [Example 47, (R)-(2-(2-amino-3-morpholinoquinolin-6-yl)-3-(3,3-dimethylbutyl)phenyl)(3-fluoropyrrolidin-1-yl)methanone], the IC50 in assay [1] (Homo sapiens, HEK293, 24 h) was less than 100 nM; in assay [2] (setting [3]), less than 100 nM.
For `Nc1nc2ccc(-c3c(Cl)cccc3C(=O)N3CCOCC3)cc2cc1N1CCOCC1` [Example 144, (2-(2-amino-3-morpholinoquinolin-6-yl)-3-chlorophenyl)(morpholino)methanone], the IC50 in assay [1] (Homo sapiens, HEK293, 24 h) fell in the range of 1010 to 5000 nM; in assay [2] (setting [3]), 100 to 500 nM.
For `Nc1nc2ccc(-c3ccccc3CC3CCOCC3)cc2cc1N1CCOCC1` [Example 13, 3-morpholino-6-(2-((tetrahydro-2H-pyran-4-yl)methyl)phenyl)quinolin-2-amine], in that order: 1010 to 5000 nM and 100 to 500 nM.
As for `CCCN(CC1CC1)C(=O)c1cccc(C)c1-c1ccc2nc(N)c(N3CCOCC3)cc2c1` [Example 111, 2-(2-amino-3-morpholinoquinolin-6-yl)-N-(cyclopropylmethyl)-3-methyl-N-propylbenzamide], the 50% inhibitory concentration (IC50) was more than 5000 nM in assay [1] (Homo sapiens, HEK293, 24 h) and 1540 nM in assay [2] (setting [4]).
In the case of `Nc1nc2ccc(-c3cc(Cl)ccc3C(=O)N3CCCC3)cc2cc1N1CCOCC1` [Example 154, (2-(2-amino-3-morpholinoquinolin-6-yl)-4-chlorophenyl)(pyrrolidin-1-yl)methanone], the IC50 was 501 to 1000 nM in assay [1] (Homo sapiens, HEK293, 24 h) and less than 100 nM in assay [2] (setting [3]).
The matching figures for `Cc1cccc(Nc2ccccc2)c1-c1ccc2nc(N)c(N3CCOCC3)cc2c1` [Example 55, 6-(2-methyl-6-(phenylamino)phenyl)-3-morpholinoquinolin-2-amine]: more than 5000 nM and 100 to 500 nM.
For `CCCC(C)N(C)C(=O)c1cccc(C)c1-c1ccc2nc(N)c(N3CCOCC3)cc2c1` (centres unmarked) [Example 120, 2-(2-amino-3-morpholinoquinolin-6-yl)-N,3-dimethyl-N-(pentan-2-yl)benzamide], in that order: 1010 to 5000 nM and less than 100 nM.
For `Cc1cccc(C(=O)C2CCCCC2)c1-c1ccc2nc(N)c(N3CCOCC3)cc2c1` [Example 181, (2-(2-amino-3-morpholinoquinolin-6-yl)-3-methylphenyl)(cyclohexyl)methanone], in that order: 1010 to 5000 nM and less than 100 nM.
In the case of `Cc1cccc(C(=O)N2CC[C@@H](C)C2)c1-c1ccc2nc(N)c(N3CCOCC3)cc2c1` [Example 101, (R)-(2-(2-amino-3-morpholinoquinolin-6-yl)-3-methylphenyl)(3-methylpyrrolidin-1-yl)methanone], the IC50 in assay [1] (Homo sapiens, HEK293, 24 h) was 501 to 1000 nM; in assay [2] (setting [3]), less than 100 nM.
For `Nc1nc2ccc(-c3c(CCc4ccccc4)cccc3C(=O)N3CCCC3)cc2cc1N1CCOCC1` [Example 162, (2-(2-amino-3-morpholinoquinolin-6-yl)-3-phenethylphenyl)(pyrrolidin-1-yl)methanone], in that order: less than 100 nM and less than 100 nM.
The matching figures for `CCOC(=O)c1cc(F)cc(C)c1-c1ccc2nc(N)c(N3CCOCC3)cc2c1` [Example 129, ethyl 2-(2-amino-3-morpholinoquinolin-6-yl)-5-fluoro-3-methylbenzoate]: 1010 to 5000 nM and 100 to 500 nM.
For the molecule `Cc1cccc(C(=O)N(C)Cc2cccc3ccccc23)c1-c1ccc2nc(N)c(N3CCOCC3)cc2c1` [Example 135, 2-(2-amino-3-morpholinoquinolin-6-yl)-N,3-dimethyl-N-(naphthalen-1-ylmethyl)benzamide], the IC50 in assay [1] (Homo sapiens, HEK293, 24 h) was in the range of 1010 to 5000 nM; in assay [2] (setting [3]), 100 to 500 nM.
As to `Cc1cccc(C(=O)N(C)[C@H](C)c2ccccc2)c1-c1ccc2nc(N)c(N3CCOCC3)cc2c1` [Example 133, (R)-2-(2-amino-3-morpholinoquinolin-6-yl)-N,3-dimethyl-N-(1-phenylethyl)benzamide], the 50% inhibitory concentration (IC50) was 1010 to 5000 nM in assay [1] (Homo sapiens, HEK293, 24 h) and less than 100 nM in assay [2] (setting [3]).
